Data reported in US10675284B2, “Treatment of B-cell malignancies by a combination JAK and PI3K inhibitors” (Incyte Corporation, priority 2014, dated 2020).
Where two headings read alike, the source gives them in different places.

Columns and labels:
Pfeiffer cells [1] = test: Cell proliferation assay in Pfeiffer cells; format: cell-based, human; details: for IC50: Homo sapiens, Pfeiffer, 72 h, Pfeiffer cells, 3 days, read-out: IC50, cell growth
Procedure: Diffuse large B cell lymphoma cells were seeded at 2000 cell/well in 96 well culture plates in the absence or presence of 10 ng/ml IL10. Compounds were added to these cells after dilution in DMSO first, followed by dilution in culture medium (4× concentration). The cells were cultured in an incubator for 3 days with 5% CO2. Cell proliferation was assessed using the Cell titer-glow assay (Promega, Madison, Wis.).

[2] = tested on: Pfeiffer human tumor xenograft; test: Pfeiffer model of lymphoma (human tumor xenograft in SCID mice); format: in vivo, mouse
Procedure: Female SCID mice, (5 to 8 weeks of age, Charles River Laboratories, Wilmington, Mass.) were inoculated with 1×10^7 tumor cells (Pfeiffer, ATCC #CRL-2632, Manassas, Va.) and matrigel (BD Biosciences #354234) in 0.2 mL sterile saline. The inoculation was performed subcutaneously on the flank. Tumor tissue fragments (approximately 3 mm×3 mm) were collected 3 to 6 weeks after the inoculation of cultured cells and implanted subcutaneously in lieu of cellular inoculation. Tissue fragments were implanted as solid pieces using blunt-tip forceps. The treatment of tumor bearing mice was started 15 to 25 days after tumor inoculation, depending upon the tumor size. Animals were sorted to obtain roughly equivalent mean tumor volumes in each group. Minimum mean tumor volume in all groups was 150 mm3 on the first day of treatment and groups consisted of 7 animals. Experimental therapeutic agent, Example 347, was administered to mice orally (PO). Treatment frequency was 2 times daily for a minimum of 14 days for efficacy. The size of subcutaneous tumors was measured 2 to 3 times weekly using a digital caliper. The tumor volume was calculated by measuring the tumor in 2 dimensions and utilizing the equation: Volume=[Length×(Width2)]/2; where the larger number was length, and the smaller number width. If multiple tumors were formed, the final volume was the sum of the individual tumors subject to the same equation: eg, 2 tumors; Volume={[L1×(W1)2]/2}+{[L2×(W2)2]/2}. Effects on tumor growth were reported as percent tumor growth inhibition (% TGI). Percent TGI was calculated with the equation: (1−(Tx vol./control vol.))*100, where control volume was the vehicle or untreated tumor volume on a given day, and Tx volume was any treatment group tumor volume on that same day. Statistical differences between treatment and vehicle controls were assessed using ANOVA: Single Factor test.
Compound 32c (Table 2 supra) was evaluated as a single agent in the Pfeiffer human tumor xenograft model of diffuse large B-cell lymphoma, a subtype of NHL. […] Therefore, a tumor model was established based on subcutaneous inoculation of tumor cells into immune compromised SCID mice and tumor-bearing mice received twice daily oral doses of vehicle or Compound 32c at 0.3, 1, 3, or 10 mg/kg for 14 days.

PI3Kδ (p110δ/p85α) = PI3Kδ (p110δ/p85α) (Homo sapiens (Human), UniProt O00329); test: PI3Kδ scintillation proximity assay; format: biochemical; details: 20 μM ATP
Chain of PI3Kδ (p110δ/p85α) (O00329 whole entry): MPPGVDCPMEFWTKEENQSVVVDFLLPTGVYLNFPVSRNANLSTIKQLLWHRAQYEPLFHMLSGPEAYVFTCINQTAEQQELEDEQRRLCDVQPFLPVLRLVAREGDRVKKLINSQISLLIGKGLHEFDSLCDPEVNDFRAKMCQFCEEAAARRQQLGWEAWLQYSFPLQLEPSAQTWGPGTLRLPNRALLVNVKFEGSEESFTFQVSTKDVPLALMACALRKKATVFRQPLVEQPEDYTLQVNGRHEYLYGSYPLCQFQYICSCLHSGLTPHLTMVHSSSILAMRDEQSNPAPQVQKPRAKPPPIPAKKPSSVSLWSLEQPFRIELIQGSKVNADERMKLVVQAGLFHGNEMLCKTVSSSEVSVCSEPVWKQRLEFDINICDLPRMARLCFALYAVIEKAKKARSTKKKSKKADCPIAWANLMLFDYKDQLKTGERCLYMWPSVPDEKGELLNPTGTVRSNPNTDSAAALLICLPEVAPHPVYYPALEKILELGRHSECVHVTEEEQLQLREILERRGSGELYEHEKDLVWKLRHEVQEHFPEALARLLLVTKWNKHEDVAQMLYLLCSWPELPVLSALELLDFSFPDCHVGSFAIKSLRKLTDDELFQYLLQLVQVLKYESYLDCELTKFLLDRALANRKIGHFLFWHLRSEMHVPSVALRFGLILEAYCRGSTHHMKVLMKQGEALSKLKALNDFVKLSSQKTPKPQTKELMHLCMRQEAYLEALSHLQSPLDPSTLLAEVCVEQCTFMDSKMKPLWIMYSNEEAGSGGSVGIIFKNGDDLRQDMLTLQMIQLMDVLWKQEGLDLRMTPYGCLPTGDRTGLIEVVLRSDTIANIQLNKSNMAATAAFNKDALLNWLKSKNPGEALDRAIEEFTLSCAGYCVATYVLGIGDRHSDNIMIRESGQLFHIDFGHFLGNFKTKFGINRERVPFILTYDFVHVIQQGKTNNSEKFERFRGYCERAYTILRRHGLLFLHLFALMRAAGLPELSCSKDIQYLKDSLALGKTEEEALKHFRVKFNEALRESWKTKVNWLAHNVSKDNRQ
Chain of PI3Kδ (p110δ/p85α) (P27986 whole entry partner): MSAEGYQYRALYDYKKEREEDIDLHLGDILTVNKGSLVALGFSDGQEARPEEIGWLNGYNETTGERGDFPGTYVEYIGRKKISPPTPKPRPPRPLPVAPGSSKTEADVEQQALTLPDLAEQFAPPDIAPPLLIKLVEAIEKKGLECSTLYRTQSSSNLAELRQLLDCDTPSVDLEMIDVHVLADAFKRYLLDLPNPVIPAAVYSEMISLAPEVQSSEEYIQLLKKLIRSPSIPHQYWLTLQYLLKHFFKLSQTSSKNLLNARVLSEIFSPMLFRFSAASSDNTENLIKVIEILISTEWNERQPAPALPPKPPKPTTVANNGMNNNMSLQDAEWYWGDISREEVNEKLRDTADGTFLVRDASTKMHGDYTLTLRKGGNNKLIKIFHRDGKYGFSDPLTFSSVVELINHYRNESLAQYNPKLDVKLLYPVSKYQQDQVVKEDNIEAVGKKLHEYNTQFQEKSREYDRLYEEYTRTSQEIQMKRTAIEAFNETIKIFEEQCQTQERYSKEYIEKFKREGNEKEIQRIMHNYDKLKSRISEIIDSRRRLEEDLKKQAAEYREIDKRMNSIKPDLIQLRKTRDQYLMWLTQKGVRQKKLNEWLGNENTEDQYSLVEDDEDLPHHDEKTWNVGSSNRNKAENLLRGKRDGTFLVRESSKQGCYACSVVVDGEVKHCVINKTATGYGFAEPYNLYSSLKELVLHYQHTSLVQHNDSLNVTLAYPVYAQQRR
Procedure: [γ-^33P]ATP (10 mCi/mL) was purchased from Perking Elmer (Waltham, Mass.). […] PI3Kδ (p110δ/p85α) was purchased from Millipore (Bedford, Mass.). ATP, MgCl2, DTT, EDTA, MOPS and CHAPS were purchased from Sigma-Aldrich (St. Louis, Mo.). Wheat Germ Agglutinin (WGA) YSi SPA Scintillation Beads was purchased from GE healthcare life sciences (Piscataway, N.J.). The kinase reaction was conducted in polystyrene 384-well matrix white plate from Thermo Fisher Scientific in a final volume of 25 μL. Inhibitors were first diluted serially in DMSO and added to the plate wells before the addition of other reaction components. The final concentration of DMSO in the assay was 0.5%. […] Reactions were initiated by the addition of ATP, the final reaction mixture consisted of 20 μM PIP2, 20 μM ATP, 0.2 μCi [γ-^33P] ATP, 4 nM PI3Kδ. Reactions were incubated for 210 min and terminated by the addition of 40 μL SPA beads suspended in quench buffer: 150 mM potassium phosphate pH 8.0, 20% glycerol. 25 mM EDTA, 400 μM ATP. The final concentration of SPA beads was 1.0 mg/mL. After the plate sealing, plates were shaken overnight at room temperature and centrifuged at 1800 rpm for 10 minutes, the radioactivity of the product was determined by scintillation counting on Topcount (Perking Elmer).

Pfeiffer cells [3] = test: Western blot analysis of Pfeiffer cells; format: cell-based, human; details: 4 hours, then IL-10 for 15 minutes
Procedure: The following materials and methods were used in the Western blot analysis infra. Cells (5 million) were lysed in a 300 μl volume of lysis buffer. Soluble fractions were collected by centrifugation. 25 μl of cell lysate were loaded into Tris-Glycine polyacrylamide gels and subjected to electrophoresis. The proteins were transferred into nitrocellulose membrane and probed with antibodies from Cell Signaling Technology for the following proteins: phospho-Stat3 Y705, phospho-Akt 5473, pim1, pim2, pim3, c-myc, phospho-p70S6K, phosho-S6, phospho-Bad S112 and actin.
IL6 and IL10 promote cell survival through the expression of Pim2, which is dependent on JAK1 activity.
Extracts were analyzed by Western blot for pAKT and pSTAT3.

Pfeiffer cells [4] = test: Annexin-V staining of Pfeiffer cells (apoptosis); format: cell-based, human; details: 3 days, 10% FBS + IL10, Compound 16 at 1 μM
[5] = molecular target: human JAK1 (a.a. 837-1142) (Homo sapiens, UniProt P23458); test: In vitro JAK kinase assay (HTRF), JAK1; format: biochemical; details: 1 mM ATP; read-out: JAK1 IC50
Chain of human JAK1 (a.a. 837-1142) (P23458 whole entry, looked up): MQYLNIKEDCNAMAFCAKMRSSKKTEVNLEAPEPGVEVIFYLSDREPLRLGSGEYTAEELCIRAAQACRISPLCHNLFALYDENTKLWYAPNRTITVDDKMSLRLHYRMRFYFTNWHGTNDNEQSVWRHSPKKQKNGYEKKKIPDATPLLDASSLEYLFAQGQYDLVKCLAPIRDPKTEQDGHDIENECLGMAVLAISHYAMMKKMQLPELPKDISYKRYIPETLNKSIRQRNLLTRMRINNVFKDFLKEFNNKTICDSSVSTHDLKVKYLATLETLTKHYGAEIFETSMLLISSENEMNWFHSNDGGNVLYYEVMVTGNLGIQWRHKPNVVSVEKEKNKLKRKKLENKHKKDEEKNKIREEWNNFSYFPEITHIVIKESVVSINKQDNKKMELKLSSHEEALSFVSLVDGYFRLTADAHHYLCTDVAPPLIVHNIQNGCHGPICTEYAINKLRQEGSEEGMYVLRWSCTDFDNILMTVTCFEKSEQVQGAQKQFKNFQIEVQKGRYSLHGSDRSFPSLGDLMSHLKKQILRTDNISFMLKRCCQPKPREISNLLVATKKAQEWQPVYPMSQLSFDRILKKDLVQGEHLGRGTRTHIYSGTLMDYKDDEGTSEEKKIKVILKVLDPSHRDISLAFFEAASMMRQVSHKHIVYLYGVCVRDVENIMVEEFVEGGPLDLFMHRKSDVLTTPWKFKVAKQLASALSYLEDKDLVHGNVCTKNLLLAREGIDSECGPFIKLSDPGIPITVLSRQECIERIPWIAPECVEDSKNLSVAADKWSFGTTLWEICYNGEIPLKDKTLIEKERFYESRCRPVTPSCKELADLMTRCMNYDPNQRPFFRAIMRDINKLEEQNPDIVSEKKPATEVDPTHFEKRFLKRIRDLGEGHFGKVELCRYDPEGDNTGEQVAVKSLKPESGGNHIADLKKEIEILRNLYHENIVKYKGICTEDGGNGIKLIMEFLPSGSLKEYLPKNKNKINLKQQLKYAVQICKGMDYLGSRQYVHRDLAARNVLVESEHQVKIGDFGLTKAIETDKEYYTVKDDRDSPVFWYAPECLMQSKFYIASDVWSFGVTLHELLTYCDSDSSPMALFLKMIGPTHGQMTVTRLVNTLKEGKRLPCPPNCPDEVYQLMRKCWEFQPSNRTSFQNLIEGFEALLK

[6] = molecular target: human JAK2 (a.a. 828-1132) (Homo sapiens (Human), UniProt O60674); test: In vitro JAK kinase assay (HTRF), JAK2; format: biochemical; details: IC50 ratio, 1 mM ATP
Chain of human JAK2 (a.a. 828-1132) (O60674 828-1132): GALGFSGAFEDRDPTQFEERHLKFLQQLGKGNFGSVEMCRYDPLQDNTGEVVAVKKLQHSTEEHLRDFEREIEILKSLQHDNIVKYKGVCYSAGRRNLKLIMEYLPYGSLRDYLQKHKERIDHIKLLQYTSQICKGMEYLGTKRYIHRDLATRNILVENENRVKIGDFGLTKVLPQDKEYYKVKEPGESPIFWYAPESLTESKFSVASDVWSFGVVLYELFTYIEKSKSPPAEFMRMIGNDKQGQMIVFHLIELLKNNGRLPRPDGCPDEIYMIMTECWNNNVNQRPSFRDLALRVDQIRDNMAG

[7] = 10% FBS + IL10, ATP readout, Compound 16 at 1 μM in combination

SMILES	IC50 (PI3Kδ (p110δ/p85α)) [nM]	IC50 (Pfeiffer cells [1]; [7]) [nM]	STAT3 phosphorylation (Pfeiffer cells [3])	pAKT (Pfeiffer cells [3])	apoptosis (Annexin-V staining) (Pfeiffer cells [4])	further results
CCOc1c(C(C)n2nc(C)c3c(N)ncnc32)cc(Cl)c(F)c1C1CNC(=O)C1 (stereo not shown) [Compound 32c, 4-{3-[1-(4-amino-3-methyl-1H-pyrazolo[3,4-d]pyrimidin-1-yl)ethyl]-5-chloro-2-ethoxy-6-fluorophenyl}pyrrolidin-2-one]						anti-proliferative effects on Pfeiffer cancer cells (Pfeiffer cells [1]; in vitro): sensitive; percent tumor growth inhibition ([2]; 0.3 mg/kg oral twice daily for 14 days): 22%; percent tumor growth inhibition ([2]; 1 mg/kg oral twice daily for 14 days): 24%; percent tumor growth inhibition ([2]; 3 mg/kg oral twice daily for 14 days): 36%; percent tumor growth inhibition ([2]; 10 mg/kg oral twice daily for 14 days): 58%
COc1c(C(C)n2nc(C)c3c(N)ncnc32)cc(Cl)c(C#N)c1C1CN(CCO)C1 (stereo not shown) [Compound 30, 4-[1-(4-amino-3-methyl-1H-pyrazolo[3,4-d]pyrimidin-1-yl)ethyl]-6-chloro-2-[1-(2-hydroxyethyl)azetidin-3-yl]-3-methoxybenzonitrile]	< 50					
Cc1csc2nc([C@H](C)Nc3ncnc4[nH]cnc34)c(-c3cccc(F)c3)c(=O)n12 [Compound 28, (S)-7-(1-(9H-purin-6-ylamino)ethyl)-6-(3-fluorophenyl)-3-methyl-5H-thiazolo[3,2-a]pyrimidin-5-one]		6360	did not	complete inhibition	neither agent alone had a significant effect	IC50 (Pfeiffer cells [1]; -IL-10, ATP readout): 670 nM
COc1c(C(C)n2nc(C)c3c(N)ncnc32)cc(Cl)c(C#N)c1C1CN(C[C@H](C)O)C1 (stereo partly drawn) [Compound 29, 4-[1-(4-amino-3-methyl-1H-pyrazolo[3,4-d]pyrimidin-1-yl)ethyl]-6-chloro-2-{1-[(2S)-2-hydroxypropyl]azetidin-3-yl}-3-methoxybenzonitrile]	< 50					
C[C@H](NC(=O)c1cc(F)c(N2CC(CC#N)(n3cc(-c4ncnc5[nH]ccc45)cn3)C2)cc1F)C(F)(F)F [Compound 16, 4-{3-(cyanomethyl)-3-[4-(7H-pyrrolo[2,3-d]pyrimidin-4-yl)-1H-pyrazol-1-yl]azetidin-1-yl}-2,5-difluoro-N-[(1S)-2,2,2-trifluoro-1-methylethyl]benzamide]		> 1000	inhibition	no effect	neither agent alone had a significant effect	IC50 [5]: < 10 nM; JAK2/JAK1 [6]: >10
CCOc1c(C(C)n2nc(C)c3c(N)ncnc32)cc(C)c(C#N)c1-c1ccc(C(=O)N(C)C)nc1 (stereo not shown) [Compound 31, 5-{3-[1-(4-amino-3-methyl-1H-pyrazolo[3,4-d]pyrimidin-1-yl)ethyl]-6-cyano-2-ethoxy-5-methylphenyl}-N,N-dimethylpyridine-2-carboxamide]	< 50					
